# From patent publication US10487071B2, “Bis-triazole compounds with anti-biofilm and anti-corrosion properties” (Université de Toulon, priority 2015, dated 2019)
# Read-outs that look alike come from different tables or passages of the source.
# Legend:
# [1] = tested on: marine bacterial strains (TC14, TC8, 4M6, TC5 and TC11); test: Anti-adhesion test, summary over the strains; type: cell-based; settings: for EC50 compared with TBTO/ZINEB: comparison with reference biocides
# Method: (§1) Bacterial strains were grown on Väätänen nine-salts solution (VNSS). When the stationary phase was reached, the bacterial suspension was centrifuged. Cells were then diluted in sterile artificial sea water (ASW) and introduced in microtiter plates (sterile black PS; Nunc, Fisher Scientific, France) with the tested compound (at eight concentrations in three replicates) in the presence of three controls: (i) non-specific staining control, (ii) adhesion control, and (iii) positive control. The maximum percentage of solvent (DMSO 2%) used to dilute the tested compound was also tested in triplicate as additional control. After incubation during an optimized adhesion time (moderately 15 h), non-adhered bacteria were eliminated and adhered cells were quantified after SYTO 61 (1 μM) staining. A percentage of inhibition was calculated per well. A sigmoid dose-response curve was obtained by plotting the percentage of inhibition as a function of the log of tested compound concentration, after mean (n=3) and standard deviation (SD) calculation per triplicate for each concentration. EC50 values were then calculated for each compound.
# (§2) In examples 64 and 65, the following marine bacterial strains are used.
# [2] = tested on: marine bacterial strains (TC14, TC8, 4M6, TC5 and TC11); test: Toxicity test, summary over the strains; type: cell-based; settings: comparison with reference biocides
# Excerpt: as §2
# Polaribacter sp. (TC5) [3] = test: Anti-adhesion test, strain TC5; type: cell-based; settings: for activity at 200 µM: 15 h; for EC50: read-out: EC50 (effective concentration to inhibit 50% of the adhesion)
# Method: as §1
# (§3) Polaribacter sp. (TC5) was isolated in June 2010 in the Military Harbor of Toulon (Mediterranean Sea, France) as described in F. Brian-Jaisson, A. Ortalo-Magné, L. Guentas-Dombrowsky, F. Armougom, Y. Blache, M. Molmeret, Microb. Ecol., 2014, 68, 94-110.
# [4] = tested on: Pseudoalteromonas ulvae (TC14); test: Toxicity test, strain TC14; type: cell-based
# Excerpt: (§4) Pseudoalteromonas ulvae (TC14) was isolated in June 2010 in the Military Harbor of Toulon (Mediterranean Sea, France) as described in F. Brian-Jaisson, A. Ortalo-Magné, L. Guentas-Dombrowsky, F. Armougom, Y. Blache, M. Molmeret, Microb. Ecol., 2014, 68, 94-110.
# Polaribacter sp. (TC5) [5] = test: Toxicity test, strain TC5; type: cell-based; settings: for CC50: read-out: LC50 (necessary concentration to kill 50% of the bacteria)
# Excerpt: as §3
# [6] = Gravimetry (weight loss), corrosion inhibition; settings: mild steel in 1N HCl
# Method: The corrosion rates were determined by electrochemical impedance spectroscopy measurements and gravimetry.
# Weight loss measurements were performed on 2.5×2.0×0.1 cm rectangular mild steel coupons. The mild steel coupons were immersed into non-de-aerated HCl 1N solution in absence and presence of different concentrations of compounds of general formula (I). After the elapsed time, the coupons were taken out, washed, dried and weighed accurately. Experiments were duplicated.
# Weight loss experiments were done to confirm the corrosion inhibitive properties of AS164.
# The inhibition efficiency, IE (%), was estimated from the weight loss experiments using the following equation:
# [formula] wherein CR^o and CR are respectively the corrosion rate in the absence and presence of AS164.
# [7] = tested on: Pseudoalteromonas ulvae (TC14); test: Anti-adhesion test, strain TC14; type: cell-based; settings: for inhibition of the adhesion of bacterial strain TC14 / activity at 200 µM: 200 μM; for activity at 200 µM / EC50: Pseudoalteromonas ulvae; for activity at 200 µM: 15 h; for EC50: read-out: EC50 (effective concentration to inhibit 50% of the adhesion)
# Method: as §1, §4
# [8] = tested on: Pseudoalteromonas lipolytica (TC8); test: microbe, parasite or virus in culture; settings: for CC50: Pseudoalteromonas lipolytica, read-out: LC50 (necessary concentration to kill 50% of the bacteria), TC8; for IS: LC50/EC50 (selectivity index), TC8: strain TC8
# Excerpt: (§5) The anti-adhesion bioassays and toxicity tests are adapted from those disclosed in M. Camps, J.-F. Briand, L. Guentas-Dombrowsky, G. Culioli, A. Bazire and Y. Blache, Mar. Poll.
# (§6) After growth on VNSS, bacterial strains were harvested during the exponential phase. The microtiter plates (sterile transparent PS; Nunc, Fisher Scientific) were filled as described in the Anti-adhesion test method using VNSS instead of ASW to allow bacterial growth. The growth was followed by measuring the turbidity (OD600 nm) every hour during 6 or 7 hours. Then, resazurin (50 μM) was added in all the wells, and fluorescence was measured after 2 h to quantify the percent of bacterial viability. The same methodology used with SYTO 61 was applied to calculate a percent of viability after resazurin staining.
# Paracoccus sp. (4M6) [9] = test: microbe, parasite or virus in culture; settings: for CC50: Paracoccus, read-out: LC50 (necessary concentration to kill 50% of the bacteria), 4M6; for IS: LC50/EC50 (selectivity index), 4M6: strain 4M6
# Excerpt: as §5, §6
# Shewanella sp. (TC11) [10] = test: Toxicity test, strain TC11; type: cell-based
# Excerpt: (§7) Shewanella sp. (TC11) was isolated in June 2010 in the Military Harbor of Toulon (Mediterranean Sea, France) as described in F. Brian-Jaisson, A. Ortalo-Magné, L. Guentas-Dombrowsky, F. Armougom, Y. Blache, M. Molmeret, Microb. Ecol., 2014, 68, 94-110.
# [11] = tested on: Pseudoalteromonas lipolytica (TC8); test: Anti-adhesion test, strain TC8; type: cell-based; settings: Pseudoalteromonas lipolytica; for activity at 200 µM: 15 h, read-out: % of adhesion at 200 μM, TC8; for EC50: read-out: EC50 (effective concentration to inhibit 50% of the adhesion), TC8
# Method: as §5, §1
# Shewanella sp. (TC11) [12] = test: Anti-adhesion test, strain TC11; type: cell-based; settings: for activity at 200 µM: 15 h; for EC50: read-out: EC50 (effective concentration to inhibit 50% of the adhesion), strain TC11
# Method: as §1, §7
# Paracoccus sp. (4M6) [13] = test: Anti-adhesion test, strain 4M6; type: cell-based; settings: Paracoccus; for activity at 200 µM: 15 h, read-out: % of adhesion at 200 μM, 4M6; for EC50: read-out: EC50 (effective concentration to inhibit 50% of the adhesion), 4M6
# Method: as §5, §1
# [14] = read-out: inhibition of the adhesion of at least four marine bacterial strains
# [15] = read-out: inhibition of the adhesion of at least two marine bacterial strains
# [16] = 200 μM, strain TC11, read-out: % of adhesion at 200 μM, TC11
SMILES,EC50 compared with TBTO/ZINEB [1],"inhibition at 200 µM [1, 14]","inhibition at 200 µM [1, 15]",toxicity by LC50 values compared with TBTO/ZINEB [2],activity at 200 µM (Polaribacter sp. (TC5) [3]),EC50 (Polaribacter sp. (TC5) [3]),"IS: LC50/EC50 (selectivity index), TC14 [4]","LC50 (necessary concentration to kill 50% of the bacteria), TC14 [4]","IS: LC50/EC50 (selectivity index), TC5 (Polaribacter sp. (TC5) [5])",CC50 (Polaribacter sp. (TC5) [5]),IE % ([6]; 0.1 ppm),IE % ([6]; 0.3 ppm),IE % ([6]; 0.5 ppm),IE % ([6]; 2 ppm),activity at 200 µM [7],EC50 [7],activity at 200 µM [11],EC50 [11],activity at 200 µM (Paracoccus sp. (4M6) [13]),EC50 (Paracoccus sp. (4M6) [13]),further results
"CN(C)CCOc1ccc(CCn2cc(-c3ccc(-c4cn(CCc5ccc(OCCN(C)C)c(Br)c5)nn4)cc3)nn2)cc1Br [AS162, 2-(4-(2-(4-(4-(1-(4-(2-(dimethylamino)ethoxy)-3-bromophenethyl)-1H-1,2,3-triazol-4-yl)phenyl)-1H-1,2,3-triazol-1-yl)ethyl)-2-bromophenoxy)-N,N-dimethylethanamine]",comparable to that of TBTO and lower than that of ZINEB,≥ 85%,≥ 65%,less toxic than TBTO and ZINEB,21.5 ± 6.6%,15.5 ± 0.1 µM,265.7,257.7 µM,24.6,382 µM,48.81%,93.35%,92.92%,97.73%,0%,0.97 ± 0.8 µM,14%,5.1 ± 1 µM,10.9 ± 8.1%,5.1 ± 1.04 µM,"IE % ([6]; 10 ppm): 97.30%; inhibition of the adhesion of bacterial strain TC14 [7]: totally inhibit; CC50 [8]: 66.1 µM; IS: LC50/EC50 (selectivity index), TC8 [8]: 12.9; CC50 (Paracoccus sp. (4M6) [9]): 97.6 µM; IS: LC50/EC50 (selectivity index), 4M6 (Paracoccus sp. (4M6) [9]): 19.2; IS: LC50/EC50 (selectivity index), TC11 (Shewanella sp. (TC11) [10]): 26.5; LC50 (necessary concentration to kill 50% of the bacteria), TC11 (Shewanella sp. (TC11) [10]): 334.3 µM; activity at 200 µM (Shewanella sp. (TC11) [12]; read-out: % of adhesion at 200 μM, TC11): 4.3 ± 7.5%; EC50 (Shewanella sp. (TC11) [12]): 12.6 ± 5.1 µM"
"CN(C)CCOc1ccc(CCn2cc(COCc3cn(CCc4ccc(OCCN(C)C)c(Br)c4)nn3)nn2)cc1Br [AS163, 2-(4-(2-(4-(((1-(4-(2-(dimethylamino)ethoxy)-3-bromophenethyl)-1H-1,2,3-triazol-4-yl)methoxy)methyl)-1H-1,2,3-triazol-1-yl)ethyl)-2-bromophenoxy)-N,N-dimethylethanamine]",–,–,≥ 65%,–,–,–,–,–,–,–,82.24%,89.36%,94.54%,96.52%,34.8 ± 2.7%,91.8 ± 17.9 µM,34.6 ± 5.1%,102 ± 46.2 µM,40.4 ± 7.8%,146 ± 81.9 µM,IE % ([6]; 10 ppm): 97.07%
"CN(C)CCCOc1ccc(CCn2cc(-c3ccc(-c4cn(CCc5ccc(OCCCN(C)C)c(Br)c5)nn4)cc3)nn2)cc1Br [AS172, 3-(4-(2-(4-(4-(1-(4-(3-(dimethylamino)propoxy)-3-bromophenethyl)-1H-1,2,3-triazol-4-yl)phenyl)-1H-1,2,3-triazol-1-yl)ethyl)-2-bromophenoxy)-N,N-dimethylpropan-1-amine]",comparable to that of TBTO and lower than that of ZINEB,≥ 85%,≥ 65%,less toxic than TBTO and ZINEB,12.7 ± 5.7%,11 ± 0.3 µM,576.1,224.7 µM,11.1,122 µM,40.16%,92.94%,91.11%,96.44%,0.5 ± 0.8%,0.39 ± 0.28 µM,5.3 ± 2.5%,15 ± 3.3 µM,5.1 ± 1.4%,3.6 ± 3.8 µM,"IE % ([6]; 10 ppm): 98.15%; inhibition of the adhesion of bacterial strain TC14 [7]: totally inhibit; CC50 [8]: 165 µM; IS: LC50/EC50 (selectivity index), TC8 [8]: 10.9; CC50 (Paracoccus sp. (4M6) [9]): 82.3 µM; IS: LC50/EC50 (selectivity index), 4M6 (Paracoccus sp. (4M6) [9]): 22.9; IS: LC50/EC50 (selectivity index), TC11 (Shewanella sp. (TC11) [10]): 18.9; LC50 (necessary concentration to kill 50% of the bacteria), TC11 (Shewanella sp. (TC11) [10]): 293 µM; activity at 200 µM (Shewanella sp. (TC11) [12]; [16]): 4.6 ± 0.4%; EC50 (Shewanella sp. (TC11) [12]): 15.6 ± 2.9 µM"
Oc1ccc(CCn2cc(CNCc3cn(CCc4ccc(O)c(Br)c4)nn3)nn2)cc1Br [NT27],–,–,≥ 65%,–,–,–,–,–,–,–,–,–,–,–,29.3 ± 7.5%,59.9 ± 27.2 µM,28.9 ± 17%,80.3 ± 18.9 µM,27.8 ± 16.3%,88.3 ± 46.2 µM,–
"Oc1ccc(CCn2cc(-c3ccc(-c4cn(CCc5ccc(O)c(I)c5)nn4)cc3)nn2)cc1I [SA43, 1,4 bis (1-(3-iodo-4-hydroxyphenethyl)-1H-1,2,3-triazol-4-yl) benzene]",comparable to that of ZINEB,≥ 85%,≥ 65%,less toxic than ZINEB,23.8 ± 0.1%,58 ± 1.61 µM,11.4,236.9 µM,5.5,320 µM,–,–,–,–,6.8 ± 1.2%,20.7 ± 5.2 µM,10.5 ± 12%,30.3 ± 31.3 µM,13.6 ± 8.9%,53.8 ± 50.9 µM,"CC50 [8]: 270 µM; IS: LC50/EC50 (selectivity index), TC8 [8]: 8.9; CC50 (Paracoccus sp. (4M6) [9]): 352 µM; IS: LC50/EC50 (selectivity index), 4M6 (Paracoccus sp. (4M6) [9]): 6.5; IS: LC50/EC50 (selectivity index), TC11 (Shewanella sp. (TC11) [10]): 80.4; LC50 (necessary concentration to kill 50% of the bacteria), TC11 (Shewanella sp. (TC11) [10]): 88.4 µM; activity at 200 µM (Shewanella sp. (TC11) [12]; [16]): 4.6 ± 0.1%; EC50 (Shewanella sp. (TC11) [12]): 1.1 ± 0.6 µM"
